This is an account of results in patent publication US20230310334A1, “LIPID NANOPARTICLE” (SHENZHEN SHENXIN BIOTECHNOLOGY CO., LTD., priority 2020, published 2023).

Each structure is given as a SMILES string.

This assay relates to luciferase mRNA (Fluc mRNA) expression. Kind of assay: Luciferase mRNA delivery performance in vivo of lipid nanoparticles prepared from amino lipid compounds (IVIS imaging). On the set-up: species or system BALB/c mice. Conditions: for Average fluorescence intensity (subcutaneous) / Average fluorescence intensity (intramuscular) / Average fluorescence intensity (tail vein): Fluc mRNA LNP, 0.5 mg/kg, imaging 6 hours after injection, male BALB/c mice; for Average fluorescence intensity (subcutaneous) / Average fluorescence intensity (intramuscular): preparation process I (DOPE); for Average fluorescence intensity (tail vein): preparation process II (DSPC); for delivery capacity after introduction of the alkynyl group: in vivo delivery, compared with corresponding amino lipid compounds without alkynyl group (36, 37). The method, then:
Example 40: Evaluation of Luciferase mRNA Delivery Performance In Vivo of Lipid Nanoparticles Prepared from Amino Lipid Compounds
Preparation of lipid nanoparticles:
Preparation process I: The amino lipid compound described in the present invention and DOPE, cholesterol, PEG2000-DMG were mixed and dissolved in absolute ethanol in a molar ratio of 45:10:42.5:2.5. Two microinjection pumps were used, and the ratio of ethanol solution to sodium acetate solution (50 mM, pH=4.0) was controlled to be 1:3. A crude solution of lipid nanoparticles was prepared in a micro flow channel chip, then dialyzed for 6 hours with 1×PBS at a controlled temperature of 4° C. by using a dialysis cassette (Fisher, MWCO 20,000), and filtered with a 0.22 μm microporous filter membrane before use. The mass ratio of the amino lipid compound to luciferase mRNA (Fluc mRNA) was about 10:1. The administration route included subcutaneous and intramuscular injections.
Preparation process II: the molar ratio of amino lipid compound to DSPC, cholesterol, PEG2000-DMG was 50:10:38.5:1.5, and the preparation process was identical to the preparation process I. The administration route was tail vein administration.
Animal preparation: 6-week-old male BALB/c mice with body weights of about 20 g were selected, and fed in an SPF-grade feeding room. Animal experiments were strictly carried out according to the guidelines of the national health institution and the requirements of animal ethics. In vivo delivery: 9 mice were randomly selected per group and injected with lipid nanoparticles at a dose of 0.5 mg/kg by three administration routes: subcutaneous, intramuscular, and tail vein, respectively (three animals per administration route). After 6 hours, […] of 10 mg/mL potassium […] was injected into each mouse via the tail vein, and after 10 minutes, the mice were placed under an in vivo imaging system (IVIS-200, Xenogen), and the total fluorescence intensity of each mouse was observed and recorded by photographing. The expression intensities of Fluc mRNA delivered by the three administration routes of representative amino lipid compounds were shown in Tables 1-3. DLin-MC3 was used as a control.

Regarding `CCCCC#CCOC(=O)CCCCCCCN(CCCO)CCCCCCCC(=O)OC(CCCCCCCC)CCCCCCCC` [Compound 1], the “Average fluorescence intensity (subcutaneous)” value is on record as 1.4E+07.

Consider `CCCCCC#CCOC(=O)CCCCCCCN(CCCO)CCCCCCCC(=O)OC(CCCCCCCC)CCCCCCCC` [Compound 2], for which the “Average fluorescence intensity (intramuscular)” value is given as 2.4E+06 and the “Average fluorescence intensity (subcutaneous)” value amounted to 1.1E+07.

Consider `CCCCCCC#CCOC(=O)CCCCCCCN(CCCO)CCCCCCCC(=O)OC(CCCCCCCC)CCCCCCCC` [Compound 3], for which the “Average fluorescence intensity (intramuscular)” value is recorded as 2.1E+06, the “Average fluorescence intensity (subcutaneous)” value stood at 2.1E+06 and the “Average fluorescence intensity (tail vein)” value was determined as 2.1E+07.

Turning to `CCCCCCCC#CCOC(=O)CCCCCCCN(CCCO)CCCCCCCC(=O)OC(CCCCCCCC)CCCCCCCC` [Compound 4], the “Average fluorescence intensity (intramuscular)” value amounted to 2.1E+06, the “Average fluorescence intensity (subcutaneous)” value stood at 2.1E+05 and the “Average fluorescence intensity (tail vein)” value is 2.9E+07.

As to `CCCCC#CCCOC(=O)CCCCCCCN(CCCO)CCCCCCCC(=O)OC(CCCCCCCC)CCCCCCCC` [Compound 5], the “Average fluorescence intensity (subcutaneous)” value came out at 7.1E+06.

For the compound `CCCCCC#CCCOC(=O)CCCCCCCN(CCCO)CCCCCCCC(=O)OC(CCCCCCCC)CCCCCCCC` [Compound 6], the “Average fluorescence intensity (intramuscular)” value is 2.1E+05 and the “Average fluorescence intensity (subcutaneous)” value came out at 2.1E+06.

Regarding `CCCCCCC#CCCOC(=O)CCCCCCCN(CCCO)CCCCCCCC(=O)OC(CCCCCCCC)CCCCCCCC` [Compound 7], the “Average fluorescence intensity (intramuscular)” value worked out at 4.1E+05, the “Average fluorescence intensity (subcutaneous)” value came to 2.1E+05 and the “Average fluorescence intensity (tail vein)” value is on record as 8.1E+06.

In the case of `CCCC#CCCCOC(=O)CCCCCCCN(CCCO)CCCCCCCC(=O)OC(CCCCCCCC)CCCCCCCC` [Compound 8], the “Average fluorescence intensity (intramuscular)” value came out at 2.1E+07, the “Average fluorescence intensity (subcutaneous)” value came to 7.1E+06 and the “Average fluorescence intensity (tail vein)” value is reported as 6.1E+06.

Consider `CCCCC#CCCCOC(=O)CCCCCCCN(CCCO)CCCCCCCC(=O)OC(CCCCCCCC)CCCCCCCC` [Compound 9], for which the “Average fluorescence intensity (intramuscular)” value came out at 5.1E+06, the “Average fluorescence intensity (subcutaneous)” value is reported as 2.7E+06 and the “Average fluorescence intensity (tail vein)” value came out at 2.8E+07.

For `CCCCCC#CCCCOC(=O)CCCCCCCN(CCCO)CCCCCCCC(=O)OC(CCCCCCCC)CCCCCCCC` [Compound 10], the “Average fluorescence intensity (intramuscular)” value came out at 2.1E+05, the “Average fluorescence intensity (subcutaneous)” value is listed as 3.1E+05 and the “Average fluorescence intensity (tail vein)” value is 2.5E+07.

Regarding `CCCCCCC#CCCCOC(=O)CCCCCCCN(CCCO)CCCCCCCC(=O)OC(CCCCCCCC)CCCCCCCC` [Compound 11], the “Average fluorescence intensity (intramuscular)” value was found to be 2.1E+06, the “Average fluorescence intensity (subcutaneous)” value is recorded as 2.1E+05 and the “Average fluorescence intensity (tail vein)” value was determined as 5.1E+07.

Regarding `CCCCCC#CCOC(=O)CCCCCCCN(CCO)CCCCCCCC(=O)OC(CCCCCCCC)CCCCCCCC` [Compound 12], the “Average fluorescence intensity (intramuscular)” value came out at 2.1E+06 and the “Average fluorescence intensity (subcutaneous)” value is listed as 3.2E+07.

As to `CCCCCCC#CCOC(=O)CCCCCCCN(CCO)CCCCCCCC(=O)OC(CCCCCCCC)CCCCCCCC` [Compound 13], the “Average fluorescence intensity (intramuscular)” value is 2.1E+06 and the “Average fluorescence intensity (subcutaneous)” value worked out at 2.6E+07.

On to `CCCCCCC#CCCOC(=O)CCCCCCCN(CCO)CCCCCCCC(=O)OC(CCCCCCCC)CCCCCCCC` [Compound 14], for which the “Average fluorescence intensity (intramuscular)” value turned out to be 4.1E+06, the “Average fluorescence intensity (subcutaneous)” value was found to be 2.1E+06 and the “Average fluorescence intensity (tail vein)” value amounted to 1.1E+07.

As to `CCCCC#CCCOC(=O)CCCCCCCN(CCCCO)CCCCCCCC(=O)OC(CCCCCCCC)CCCCCCCC` [Compound 15], the “Average fluorescence intensity (intramuscular)” value is 2.8E+07 and the “Average fluorescence intensity (subcutaneous)” value is listed as 3.1E+05.

As for `CCCCCC#CCCOC(=O)CCCCCCCN(CCCCO)CCCCCCCC(=O)OC(CCCCCCCC)CCCCCCCC` [Compound 16], the “Average fluorescence intensity (intramuscular)” value is listed as 1.4E+07 and the “Average fluorescence intensity (subcutaneous)” value stood at 2.7E+06.

With `CCCCC#CCCCOC(=O)CCCCCCCN(CCCCO)CCCCCCCC(=O)OC(CCCCCCCC)CCCCCCCC` [Compound 17], the “Average fluorescence intensity (intramuscular)” value is on record as 2.7E+06, the “Average fluorescence intensity (subcutaneous)” value came out at 2.5E+06, the “Average fluorescence intensity (tail vein)” value was determined as 5.1E+07 and the “delivery capacity after introduction of the alkynyl group” value is listed as “significantly enhanced”.

Consider `CCCCC#CCCCOC(=O)CCCCCCCN(CCCCCCCC(=O)OC(CCCCCCCC)CCCCCCCC)C1CC(O)C1` (centres unmarked) [Compound 18], for which the “Average fluorescence intensity (tail vein)” value worked out at 7.1E+07.

`CCCCCC#CCCCOC(=O)CCCCCCCN(CCCCCCCC(=O)OC(CCCCCCCC)CCCCCCCC)C1CCC(O)C1` (centres unmarked) [Compound 19]: the “Average fluorescence intensity (intramuscular)” value is on record as 2.1E+05 and the “Average fluorescence intensity (tail vein)” value is 9.1E+06.

Regarding `CCCCCC#CCCCOC(=O)CCCCCCCN(CCCCCCCC(=O)OC(CCCCCC)CCCCCCCC)C1CCC(O)C1` (centres unmarked) [Compound 20], the “Average fluorescence intensity (intramuscular)” value was found to be 5.2E+05 and the “Average fluorescence intensity (subcutaneous)” value turned out to be 3.7E+07.

For the compound `CCCCCC#CCCCOC(=O)CCCCCCCN(CCCCCCCC(=O)OC(CCCCCCCC)CCCCCCCC)C1CCC(O)CC1` (centres unmarked) [Compound 21], the “Average fluorescence intensity (intramuscular)” value was 1.1E+07 and the “Average fluorescence intensity (subcutaneous)” value came out at 4.1E+06.

As to `CCCCC#CCCCOC(=O)CCCCN(CCCCO)CCCCCCCC(=O)OC(CCCCCCCC)CCCCCCCC` [Compound 22], the “Average fluorescence intensity (intramuscular)” value is given as 3.1E+05 and the “Average fluorescence intensity (subcutaneous)” value came to 2.8E+07.

In the case of `CCCCC#CCCCOC(=O)CCCCCCCCCN(CCCCO)CCCCCCCC(=O)OC(CCCCCCCC)CCCCCCCC` [Compound 23], the “Average fluorescence intensity (intramuscular)” value is 2.7E+05 and the “Average fluorescence intensity (tail vein)” value was 6.1E+07.

As for `CCCCC#CCCCOC(=O)CCCCCCCCCCCCCN(CCCCO)CCCCCCCC(=O)OC(CCCCCCCC)CCCCCCCC` [Compound 24], the “Average fluorescence intensity (intramuscular)” value is listed as 2.1E+05 and the “Average fluorescence intensity (tail vein)” value was determined as 7.8E+06.

For the compound `CCCCC#CCCCOC(=O)CCCCCCCCCCCCCN(CCCO)CCCCCCCC(=O)OC(CCCC)CCCC` [Compound 25], the “Average fluorescence intensity (intramuscular)” value is recorded as 2.1E+05 and the “Average fluorescence intensity (subcutaneous)” value was determined as 2.6E+07.

`CCCCC#CCCCOC(=O)CCCCCCCCCCCCCN(CCCO)CCCCCCCC(=O)OC(CCCC)CCCCCC` (centres unmarked) [Compound 26]: the “Average fluorescence intensity (intramuscular)” value was found to be 6.1E+07 and the “Average fluorescence intensity (subcutaneous)” value stood at 1.7E+06.

On to `CCCCC#CCCCOC(=O)CCCCN(CCCO)CCCCCCCC(=O)OCC(CCCCCC)CCCCCCCC` (centres unmarked) [Compound 28], for which the “Average fluorescence intensity (intramuscular)” value stood at 6.1E+07 and the “Average fluorescence intensity (subcutaneous)” value came to 2.1E+06.

With `CCCCCCCCCC#CC(=O)OCCCCCCCN(CCCO)CCCCCCCOC(=O)C(CCCCCC)CCCCCCCC` (centres unmarked) [Compound 29], the “Average fluorescence intensity (intramuscular)” value is 1.8E+07 and the “Average fluorescence intensity (subcutaneous)” value is 8.1E+06.

Regarding `CCCC#CCCCOC(=O)CCCCCCCN(CCCC#N)CCCCCCCC(=O)OC(CCCCCCCC)CCCCCCCC` [Compound 30], the “Average fluorescence intensity (intramuscular)” value came out at 1.1E+07 and the “Average fluorescence intensity (subcutaneous)” value is reported as 7.1E+06.

`CCCCC#CCCCOC(=O)CCCCCCCN(CCCCCCCC(=O)OC(CCCCCCCC)CCCCCCCC)CCCN(C)C` [Compound 31]: the “Average fluorescence intensity (intramuscular)” value is given as 1.5E+07, the “Average fluorescence intensity (subcutaneous)” value stood at 5.1E+05 and the “delivery capacity after introduction of the alkynyl group” value is listed as “significantly enhanced”.

For the compound `CCCC#CCCCOC(=O)CCCCCCCN(CCCCCCCC(=O)OC(CCCCCCCC)CCCCCCCC)CCCN1CCOCC1` [Compound 32], the “Average fluorescence intensity (intramuscular)” value is recorded as 2.8E+07 and the “Average fluorescence intensity (subcutaneous)” value came to 7.1E+05.

`CCCCC#CCCCOC(=O)CCCCCCCN(CCCCCCCC(=O)OC(CCCCCCCC)CCCCCCCC)CCCOC(=O)CCCCC` [Compound 33]: the “Average fluorescence intensity (intramuscular)” value turned out to be 1.1E+07 and the “Average fluorescence intensity (subcutaneous)” value stood at 3.1E+06.

On to `CCCCC#CCCCOC(=O)CCCCCCCN(CCCCCCCC(=O)OC(CCCCCCCC)CCCCCCCC)CCCNC(=O)CCCCC` [Compound 34], for which the “Average fluorescence intensity (intramuscular)” value is given as 4.8E+06 and the “Average fluorescence intensity (subcutaneous)” value is on record as 5.3E+05.
